According to publication PMC12700101 (2025):

Assays:
[1] = tested on: Dopamine MAB Cy3–Dab (DNA, aptamer, dabcyl-5-methyl-dC at 41 (3' end)) ACGCCAGTTTGAAGGTTCGTTCGCAGGTGTGGAGTGACGTC; test: fluorescence melting; settings: 1x PBS, 2 mM MgCl2; derived from two Tm (43.3 ± 1.0, 53.6 ± 0.3); 50 µM dopamine, pH 8.0
[2] = tested on: Dopamine DBS Cy3–BHQ-1 (Int.) (DNA, aptamer) AAATACAACAAGAAAAAACTCTCGGGACGACGACCAGTTTGAAGGTTCGTTCGCAGGTGTGGAGTGACGTCGTCCC; test: fluorescence strand-displacement titration; settings: 1x PBS, 2 mM MgCl2; apparent; pH 8.0, 25 °C; displaced 42-nt strand, internal BHQ-1, 4 eq
[3] = tested on: Dopamine MAB FAM–Dab (DNA, aptamer, dabcyl-5-methyl-dC at 41 (3' end)) ACGCCAGTTTGAAGGTTCGTTCGCAGGTGTGGAGTGACGTC; test: fluorescence quenching titration (molecular aptamer beacon); settings: 1x PBS, 2 mM MgCl2; apparent; pH 8.0, 25 °C
[4] = tested on: Dopamine DBS FAM(+T)/BHQ-1 (term.) (DNA, aptamer, 6-FAM-modified dT (click, i6-FAMK) at 33) AAATACAACAAGAAAAAACTCTCGGGACGACGTCCAGTTTGAAGGTTCGTTCGCAGGTGTGGAGTGACGTCGTCCC; test: fluorescence melting; settings: 1x PBS, 2 mM MgCl2; pH 8.0; 50 µM dopamine; derived from two Tm (48.4, 48.3); displacement strand 1:4
[5] = tested on: Dopamine DBS BHQ-1–Cy3 (DNA, aptamer) AAATACAACAAGAAAAAACTCTCGGGACGACGACCAGTTTGAAGGTTCGTTCGCAGGTGTGGAGTGACGTCGTCCC; test: fluorescence strand-displacement titration; settings: 1x PBS, 2 mM MgCl2; apparent; pH 8.0, 25 °C; displaced 42-nt 5'-Cy3 strand, 1 eq
[6] = tested on: Dopamine DBS Cy3–BHQ-1 (Term.) (DNA, aptamer) AAATACAACAAGAAAAAACTCTCGGGACGACGACCAGTTTGAAGGTTCGTTCGCAGGTGTGGAGTGACGTCGTCCC; test: fluorescence strand-displacement titration; settings: 1x PBS, 2 mM MgCl2; apparent; pH 8.0, 25 °C; displaced 43-nt strand, 5'-BHQ-1 plus T, 4 eq
[7] = tested on: Dopamine DBS Cy3–BHQ-1 (Position 1/Adjacent) (DNA, aptamer) AAATACAACAAGAAAAAACTCTCGGGACGACGACCAGTTTGAAGGTTCGTTCGCAGGTGTGGAGTGACGTCGTCCC; test: fluorescence strand-displacement titration; settings: 1x PBS, 2 mM MgCl2; apparent; pH 8.0, 25 °C; displaced CGTCGTCCCCTCTTCACATATCTATTTTTTCTTGTTGTATTT, 4 eq, 5'-BHQ-1

Work on `NCCc1ccc(O)c(O)c1` yielded a Tm [1] of 10.3 °C, a Kd [2] of 34.0 ± 3.3 µM and a Kd [3] of 3.2 ± 0.2 µM. The Tm [4] was -0.1 °C, the Kd [5] was 95.6 ± 6.7 µM and the Kd [6] was 142.9 ± 11.7 µM. It also gave a Kd [7] of 229.9 ± 22.0 µM.
